Active and inactive are the calls of the source. No cut-off for these calls is given here.
Key:
[1] = target: Fibroblast growth factor receptor 1 (Rattus norvegicus) (UniProt Q04589); experiment: Modulation of FGFR in Wistar rat neuronal cells assessed as protection against glutamate-induced toxicity at 10 uM pretreated for 24 hrs followed by glutamate-stimulation and measured after 24 hrs by CCK8 assay relative to SUN13837; assay type: cell-based
[2] = Lipophilicity, log P of the compound by RP-HPLC analysis; assay type: physicochemical
CYP3A4 = CYP3A4 (Homo sapiens, UniProt P08684); experiment: Inhibition of CYP3A4 in human liver microsomes assessed as enzyme residual activity at 100 uM measured after 30 mins relative to control; assay type: ADME; conditions: read-out: Activity
[3] = Metabolic stability in human liver microsomes assessed as metabolic turnover rate per mg protein in presence of NADPH; assay type: ADME, Microsome
[4] = target: Fibroblast growth factor receptor 1 (Rattus norvegicus) (UniProt Q04589); experiment: Modulation of FGFR in Wistar rat neuronal cells assessed as protection against glutamate-induced toxicity at 10 uM pretreated for 24 hrs followed by glutamate-stimulation and measured after 24 hrs in presence of FGFR1 inhibitor PD166866 by CCK8 assay; assay type: cell-based
[5] = Elimination half life in Sprague-Dawley rat at 3 mg/kg, iv; assay type: ADME, organism-based; conditions: in vivo, read-out: beta t1/2 (converted)
[6] = Clearance in Sprague-Dawley rat at 3 mg/kg, iv; assay type: ADME, organism-based; conditions: in vivo
[7] = AUC in Sprague-Dawley rat at 5 mg/kg, po; assay type: ADME, organism-based; conditions: in vivo
[8] = Oral bioavailability in Sprague-Dawley rat at 5 mg/kg; assay type: ADME, organism-based; conditions: in vivo
[9] = Brain to plasma permeability coefficient, Kp of the compound in Sprague-Dawley rat at 3 mg/kg, iv measured after 1 hr; assay type: ADME, organism-based; conditions: brain and plasma
[10] = Elimination half life in Sprague-Dawley rat at 1 mg/kg, iv; assay type: ADME, organism-based; conditions: in vivo, read-out: beta t1/2 (converted)
[11] = Clearance in Sprague-Dawley rat at 1 mg/kg, iv; assay type: ADME, organism-based; conditions: in vivo
[12] = Brain to plasma permeability coefficient, Kp of the compound in Sprague-Dawley rat at 1 mg/kg, iv measured after 1 hr; assay type: ADME, organism-based; conditions: brain and plasma

Sequence of CYP3A4 (P08684 whole entry): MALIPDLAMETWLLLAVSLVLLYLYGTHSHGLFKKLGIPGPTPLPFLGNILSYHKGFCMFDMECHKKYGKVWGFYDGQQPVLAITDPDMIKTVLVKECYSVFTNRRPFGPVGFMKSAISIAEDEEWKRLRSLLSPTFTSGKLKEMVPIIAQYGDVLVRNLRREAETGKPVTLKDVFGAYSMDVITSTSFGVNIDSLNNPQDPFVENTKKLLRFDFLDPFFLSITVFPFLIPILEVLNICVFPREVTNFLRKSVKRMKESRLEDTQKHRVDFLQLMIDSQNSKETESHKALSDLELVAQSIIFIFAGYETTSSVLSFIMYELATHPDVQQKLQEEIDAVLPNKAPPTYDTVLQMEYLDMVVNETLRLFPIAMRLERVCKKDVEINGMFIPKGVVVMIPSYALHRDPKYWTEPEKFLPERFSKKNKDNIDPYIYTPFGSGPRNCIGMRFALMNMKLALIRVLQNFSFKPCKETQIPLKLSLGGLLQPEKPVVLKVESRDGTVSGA
Sequence of Fibroblast growth factor receptor 1 (Rattus norvegicus) (Q04589 whole entry): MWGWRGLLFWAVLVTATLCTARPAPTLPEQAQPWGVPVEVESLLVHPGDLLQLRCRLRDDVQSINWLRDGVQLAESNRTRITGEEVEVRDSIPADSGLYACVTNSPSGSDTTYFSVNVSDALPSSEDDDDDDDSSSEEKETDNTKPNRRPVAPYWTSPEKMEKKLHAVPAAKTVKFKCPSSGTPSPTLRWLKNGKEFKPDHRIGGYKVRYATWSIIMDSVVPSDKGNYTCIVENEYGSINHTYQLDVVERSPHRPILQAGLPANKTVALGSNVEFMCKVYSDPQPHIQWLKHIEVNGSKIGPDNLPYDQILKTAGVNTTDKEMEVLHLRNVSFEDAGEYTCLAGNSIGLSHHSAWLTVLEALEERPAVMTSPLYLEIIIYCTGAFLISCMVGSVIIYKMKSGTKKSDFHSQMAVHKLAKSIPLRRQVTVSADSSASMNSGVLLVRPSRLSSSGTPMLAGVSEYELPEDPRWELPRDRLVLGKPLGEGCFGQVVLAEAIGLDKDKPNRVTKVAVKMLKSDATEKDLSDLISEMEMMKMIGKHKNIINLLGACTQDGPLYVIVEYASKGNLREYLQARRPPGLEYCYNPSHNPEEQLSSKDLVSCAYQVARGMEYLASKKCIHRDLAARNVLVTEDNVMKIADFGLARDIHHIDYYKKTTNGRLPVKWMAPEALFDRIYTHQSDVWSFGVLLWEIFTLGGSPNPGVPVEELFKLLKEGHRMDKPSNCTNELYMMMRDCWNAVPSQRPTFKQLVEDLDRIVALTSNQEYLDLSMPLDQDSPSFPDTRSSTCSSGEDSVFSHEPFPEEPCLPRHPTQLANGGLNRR

`Cc1ccc(OCc2cnnn2C2CCN(Cc3ccccc3)CC2)nn1` gave an Activity [1] of 73% and a logP [2] of 3.8.

With `Cc1nc(OCc2cn(C3CCN(CC4CC4)CC3)nn2)nc(C)c1N` the Activity [1] was 116%, the activity at 0.5 h, 100 µM (CYP3A4) was 100% and the Drug metabolism [3] was < 10 pmol/min. For the same compound, the logP [2] was 1.4.

With `Cc1cnc(OCc2cn(C3CCN(CC4CC4)CC3)nn2)nc1` the Activity [1] was 100%, the activity at 0.5 h, 100 µM (CYP3A4) was 100% and the logP [2] was 1.7.

With `Cc1c(COc2ncc(Cl)cn2)nnn1C1CCN(CC2CC2)CC1` the Activity [1] was 311%, the activity at 0.5 h, 100 µM (CYP3A4) was 94% and the Drug metabolism [3] was < 10 pmol/min. For the same compound, the logP [2] was 2.4, the Activity [4] was “inactive” and the half-life [5] was 4 h. For the same compound, the clearance [6] was 10 mL/min/kg, the AUC [7] was 4520 ng·h/mL and the bioavailability [8] was 57%. The Kp at 1 h [9] was 1.3.

Compound `Cc1cnc(OCc2cn(C3CCN(Cc4ccccc4)CC3)nn2)nc1` has an Activity [1] of 66%, an activity at 0.5 h, 100 µM (CYP3A4) of 100% and a Drug metabolism [3] of 40 pmol/min. The logP [2] was 4.

In the case of `Clc1cnc(OCc2cn(C3CCN(CC4CC4)CC3)nn2)nc1`, the Activity [1] is reported as 162%, the activity at 0.5 h, 100 µM (CYP3A4) is reported as 100% and the Drug metabolism [3] is reported as 24 pmol/min. It also gave a logP [2] of 2.6, a half-life [10] of 1.6 h and a clearance [11] of 21.7 mL/min/kg. The AUC [7] was 2120 ng·h/mL, the bioavailability [8] was 58% and the Kp at 1 h [12] was 1.1.

In the case of `Cc1nc(OCc2cn(C3CCN(Cc4ccccc4)CC3)nn2)nc(C)c1N`, the Activity [1] is reported as 134%, the activity at 0.5 h, 100 µM (CYP3A4) is reported as 19% and the Drug metabolism [3] is reported as 19 pmol/min. For the same compound, the logP [2] was 3 and the Activity [4] was “inactive”.

For `Clc1cnc(OCc2cn(C3CCN(Cc4ccccc4)CC3)nn2)nc1`, the Activity [1] was 43%, the activity at 0.5 h, 100 µM (CYP3A4) was 99% and the Drug metabolism [3] was 86 pmol/min. For the same compound, the logP [2] was 5.

Work on `Cc1ccc(OCc2cn(C3CCN(Cc4ccccc4)CC3)nn2)nn1` yielded an Activity [1] of 135%, an activity at 0.5 h, 100 µM (CYP3A4) of 100% and a Drug metabolism [3] of 45 pmol/min. It also gave a logP [2] of 3.5.

In the case of `Cc1nc(OCC(=O)N(C)C2CCN(Cc3ccccc3)CC2)nc(C)c1N`, the activity at 0.5 h, 100 µM (CYP3A4) is reported as 60%, the Drug metabolism [3] is reported as < 10 pmol/min and the logP [2] is reported as 2.3.

For `Cc1ccc(OCc2cn(C3CCN(CC4CC4)CC3)nn2)nn1`, the Activity [1] was 118%, the activity at 0.5 h, 100 µM (CYP3A4) was 100% and the Drug metabolism [3] was 34 pmol/min. It also gave a logP [2] of 1.4.

— ChEMBL document CHEMBL4387771, “Discovery of 1,2,3-triazole-based fibroblast growth factor receptor modulators” (Bioorg Med Chem Lett, 2019)
